Measured values from patent publication US20260070900A1, “A NOVEL CRYSTALLINE FORM OF PRITELIVIR” (Assembly Biosciences, Inc., priority 2022, published 2026).
“Also recorded” adds a separate entry of the source.

Columns and labels:
[1] = Dynamic vapor sorption (DVS) humidity stability, with XRPD post-DVS; assay type: physicochemical
Protocol: Powder X-Ray Diffraction (PXRD): PXRD diffractograms were acquired on Rigaku Smartlab SE diffractometer using Cu, Kα, Kα1(Å):1.540598, Kα2(Å):1.544426 radiation with a Kα2:Kα1 intensity ratio of 0.50. X-Ray tube setting was 40 kV, 15 mA, Scan Mode 1D. The scan range (2 theta) was 3-40°, step size (2 theta) of 0.02° with scan speed (2 theta) of 10°/min. Dynamic Vapor Sorption (DVS): DVS analysis was performed on an Adventure DVS instrument, using a partial pressure range of 0-90%, with a step size of 10% and dm/dt=0.002. DVS data was collected at 25° C. 2 cycles were performed per analysis. Gas flow of N2 (200 sccm) was used.

[2] = Solubility determination in 0.9% NaCl and 0.5% polysorbate 80 (HPLC of filtrate); assay type: physicochemical; settings: RT, aqueous vehicle with 0.9% NaCl and 0.5% polysorbate 80, at 24 hours
Protocol: Sample preparation: excess Type 4 was added to the vehicle containing 0.9% NaCl and 0.5% polysorbate 80. The mixture was sonicated for 15 minutes, then agitated at 500 rpm at room temperature. At 24 hours, the mixture was filtrated, and filtrate was analyzed by HPLC to determine the solubility. • Instrument: Agilent 1260 • Column: ACE ultracore super C18 (100 mm*4.6 mm*2.5 μm) (P/N: CORE-25A-1046U) • Wavelength: 234 nm • Column Temperature: 20° C. • Column Flow: 1.0 mL/min • Acquisition time: 25 min • Injection volume: 5 μL • Retention time: ˜14 min • Mobile Phase A: 5 mM (NH4)2HPO4 and 5 mM of NH4H2PO4 in H2O • Mobile Phase B: ACN The solubility of Form C (hemihydrate as disclosed in WO 2018/096170) was determined in the same media used to determine the solubility of Type 4 as described above. Sample preparation: excess Form C was added to the vehicle containing 0.9% NaCl and 0.5% polysorbate 80. The mixture was sonicated for 15 minutes, then agitated at 500 rpm at room temperature. […]

[3] = DVS at 25° C., 0-90% partial pressure, 2 cycles

With `Cc1nc(N(C)C(=O)Cc2ccc(-c3ccccn3)cc2)sc1S(N)(=O)=O` [Type 4, N-methyl-N-(4-methyl-5-sulfamoylthiazol-2-yl)-2-(4-(pyridin-2-yl)phenyl)acetamide] the “relative humidity at which the form is stable (DVS)” value [1, 3] was “greater than 20%”, the “relative humidity at which weight loss is observed (DVS)” value [1, 3] was “less than 10%” and the “solid form post DVS experiment by XRPD” value ([1]; after DVS, XRPD) was “confirmed as Type 4”. The “stability to humidity (in words)” value ([1]; conclusion from the characterization data of Example 1) was “stable across a large humidity range; also recorded: stable across a wide range of humidity levels” and the solubility [2] was “around 18.2 μg/mL”.

In the case of `Cc1nc(N(C)C(=O)Cc2ccc(-c3ccccn3)cc2)sc1S(N)(=O)=O` [Form C, N-methyl-N-(4-methyl-5-sulfamoylthiazol-2-yl)-2-(4-(pyridin-2-yl)phenyl)acetamide, reference compound], the solubility [2] is reported as “around 8.4 μg/mL”.
